This experiment relates to ATF4 luciferase reporter in HEK293T cells. Description: ATF4-Luc assay (ATF4 luciferase reporter, tunicamycin-treated HEK293T cells). It is filed as cell-based, human. The conditions noted are these: Homo sapiens, HEK-293T; HEK293T cells carrying the ATF4 luciferase reporter, 1 μg/mL tunicamycin, 7 hours. The protocol: In order to test exemplary compounds of the invention in a cellular context, a stable VWMD cell line was first constructed. The ATF4 reporter was prepared by fusing the human full-length ATF4 5′-UTR (NCBI Accession No. BC022088.2) in front of the firefly luciferase (FLuc) coding sequence lacking the initiator methionine as described in Sidrauski et al (eLife 2013). The construct was used to produce recombinant retroviruses using standard methods and the resulting viral supernatant was used to transduce HEK293T cells, which were then subsequently selected with puromycin to generate a stable cell line.
HEK293T cells carrying the ATF4 luciferase reporter were plated on polylysine coated 384-well plates (Greiner Bio-one) at 30,000 cells per well. Cells were treated the next day with 1 μg/mL tunicamycin and 200 nM of a compound of Formula (I) for 7 hours. Luminescence was measured using One Glo (Promega) as specified by the manufacturer. Cells were maintained in DMEM with L-glutamine supplemented with 10% heat-inactivated FBS (Gibco) and Antibiotic-Antimycotic solution (Gibco).
Table 2 below summarizes the EC50 data obtained using the ATF4-Luc assay for exemplary compounds of the invention.

The structures appear in SMILES notation.

On to `O=C(COc1ccc(Cl)c(F)c1)NC12CCC(NC(=O)COc3ccc(C(F)(F)F)cc3)(CC1)[C@@H](O)C2` [Compound 507, 2-(4-chloro-3-fluorophenoxy)-N-[(3S)-3-hydroxy-4-{2-[4-(trifluoromethyl)phenoxy]acetamido}bicyclo[2.2.2]octan-1-yl]acetamide], for which the EC50 was under 10 nM.
Next, `O=C(COCCc1cccc(Cl)c1)NC12CC(NC(=O)COc3ccc(Cl)c(Cl)c3)(C1)C2` [Compound 151, 2-[2-(3-chlorophenyl)ethoxy]-N-{3-[2-(3,4-dichlorophenoxy)acetamido]-bicyclo[1.1.1]pentan-1-yl}acetamide]: under 10 nM; `O=C(COc1ccc(Cl)c(Cl)c1)NC12CCC(NC(=O)COc3ccc(Cl)c(Cl)c3)(CC1)[C@@H](O)C2` [Compound 538, N,N′-[(2S)-2-hydroxybicyclo[2.2.2]octane-1,4-diyl]bis[2-(3,4-dichlorophenoxy)acetamide]]: under 10 nM.
On to `O=C(CCOc1cccc(Cl)c1)NC12CC(NC(=O)COc3ccc(Cl)c(F)c3)(C1)C2` [Compound 147, N-{3-[2-(4-chloro-3-fluorophenoxy)acetamido]bicyclo[1.1.1]pentan-1-yl}-3-(3-chlorophenoxy)propanamide], for which the EC50 fell in the range of 50 to 250 nM.
For `CC(C)(C)c1ccc(OCC(=O)NC23CCC(NC(=O)COc4ccc(Cl)c(F)c4)(CC2)C[C@@H]3O)cc1` [Compound 506, 2-(4-tert-butylphenoxy)-N-{(2S)-4-[2-(4-chloro-3-fluorophenoxy)acetamido]-2-hydroxybicyclo[2.2.2]octan-1-yl}acetamide] the value was 250 to 500 nM.
For the compound `O=C(/C=C/c1ccc(Cl)c(Cl)c1)NC12CC(NC(=O)/C=C/c3ccc(Cl)c(Cl)c3)(C1)C2` [Compound 367, (2E,2′E)-N,N′-(bicyclo[1.1.1]pentane-1,3-diyl)bis[3-(3,4-dichlorophenyl)prop-2-enamide]], the 50% effective concentration (EC50) is over 2000 nM.
In the case of `COc1cc(OCC(=O)NC23CCC(NC(=O)COc4ccc(F)c(F)c4)(CC2)C[C@@H]3O)ccc1F` [Compound 770, 2-(3,4-difluorophenoxy)-N-{(3S)-4-[2-(4-fluoro-3-methoxyphenoxy)acetamido]-3-hydroxybicyclo[2.2.2]octan-1-yl}acetamide], the EC50 is under 10 nM.
Next, `COc1cc(OCC(=O)NC23CC(NC(=O)COc4ccc(Cl)c(F)c4)(C2)C3)cnc1F` [Compound 246, 2-(4-chloro-3-fluorophenoxy)-N-(3-{2-[(6-fluoro-5-methoxypyridin-3-yl)oxy]acetamido}bicyclo[1.1.1]pentan-1-yl)acetamide]: 10 to 50 nM; `CN(CCC(=O)O)C1CC2(NC(=O)COc3ccc(Cl)c(F)c3)CCC1(NC(=O)COc1ccc(Cl)c(F)c1)CC2` (stereo not shown) [Compound 698, 3-[{1,4-bis[2-(4-chloro-3-fluorophenoxy)acetamido]bicyclo[2.2.2]octan-2-yl}(methyl)amino]propanoic Acid]: 250 to 500 nM; `O=C(COc1ccc(Cl)c(F)c1)NC12CCC(NC(=O)COc3ccc(F)c(F)c3)(CC1)[C@@H](O)C2` [Compound 587, 2-(4-chloro-3-fluorophenoxy)-N-{(3S)-4-[2-(3,4-difluorophenoxy)acetamido]-3-hydroxybicyclo[2.2.2]octan-1-yl}acetamide]: under 10 nM.
For `O=C(COc1ccc(Cl)c(F)c1)NC12CCC(NC(=O)COc3ccc(Cl)c(F)c3)(CC1)C(N1CC(O)C1)C2` (stereo not shown) [Compound 719, N,N′-[2-(3-hydroxyazetidin-1-yl)bicyclo[2.2.2]octane-1,4-diyl]bis[2-(4-chloro-3-fluorophenoxy)acetamide]] the value was 10 to 50 nM.
For the compound `O=C(COCc1n[nH]c(=O)o1)NC12CC(NC(=O)COc3ccc(Cl)c(F)c3)(C1)C2` [Compound 218, 2-(4-chloro-3-fluorophenoxy)-N-(3-{2-[(5-oxo-4,5-dihydro-1,3,4-oxadiazol-2-yl)methoxy]acetamido}bicyclo[1.1.1]pentan-1-yl)acetamide], the EC50 fell in the range of 500 to 2000 nM.
Next, `O=C(COc1ccc(F)c(Cl)c1)NC12CC(NC(=O)COc3ccc4c(c3)OC(F)(F)O4)(C1)C2` [Compound 591, 2-(3-chloro-4-fluorophenoxy)-N-(3-{2-[(2,2-difluoro-2H-1,3-benzodioxol-5-yl)oxy]acetamido}bicyclo[1.1.1]pentan-1-yl)acetamide]: under 10 nM.
Take `O=C(COc1ccc(Cl)c(F)c1)NC12CC(NS(=O)(=O)CCOc3ccccc3)(C1)C2` [Compound 488, 2-(4-chloro-3-fluorophenoxy)-N-{3-[(2-phenoxyethanesulfonyl)amino]bicyclo[1.1.1]pentan-1-yl}acetamide]: the EC50 was over 2000 nM.
Turning to `O=C(COc1ccc(F)c(F)c1)NC12CCC(NC(=O)COc3ccc(C(F)(F)F)c(F)c3)(CC1)[C@@H](O)C2` [Compound 833, 2-(3,4-difluorophenoxy)-N-[(3S)-4-{2-[3-fluoro-4-(trifluoromethyl)phenoxy]acetamido}-3-hydroxybicyclo[2.2.2]octan-1-yl]acetamide], the EC50 was under 10 nM.
For `CN1Cc2ccc(OCC(=O)NC34CCC(NC(=O)COc5ccc(Cl)c(F)c5)(CC3)[C@@H](O)C4)cc2C1=O` [Compound 695, 2-(4-chloro-3-fluorophenoxy)-N-[(2S)-2-hydroxy-4-{2-[(2-methyl-3-oxo-2,3-dihydro-1H-isoindol-5-yl)oxy]acetamido}bicyclo[2.2.2]octan-1-yl]acetamide] the value was 500 to 2000 nM; for `O=C(COc1ccc(Cl)c(F)c1)NC12CCC(NC(=O)COc3ccc(F)c(Cl)c3)(CC1)[C@@H](O)C2` [Compound 596, 2-(4-chloro-3-fluorophenoxy)-N-{(3S)-4-[2-(3-chloro-4-fluorophenoxy)acetamido]-3-hydroxybicyclo[2.2.2]octan-1-yl}acetamide], under 10 nM.
Next, `O=C(COc1ccc(Cl)c(Cl)c1)NC12CCC(NC(=O)COc3ccc(Cl)c(Cl)c3)(CC1)C2` [Compound 526, N,N′-(bicyclo[2.2.1]heptane-1,4-diyl)bis[2-(3,4-dichlorophenoxy)acetamide]]: 10 to 50 nM; `CC(=O)O[C@@H]1CC2(NCCOc3ccc(Cl)c(F)c3)CCC1(NC(=O)COc1ccc(Cl)c(F)c1)CC2` [Compound 450, (2R)-1-[2-(4-chloro-3-fluorophenoxy)acetamido]-4-{[2-(4-chloro-3-fluorophenoxy)ethyl]amino}bicyclo[2.2.2]octan-2-yl acetate]: 10 to 50 nM.
Next, `Cc1ccc(OCC(=O)NC23CCC(NC(=O)COc4cc(F)c5cn[nH]c5c4)(CC2)[C@@H](O)C3)cc1F` [Compound 735]: under 10 nM; `CN(C)c1ccc(CCOCC(=O)NC23CC(NC(=O)COc4ccc(Cl)c(F)c4)(C2)C3)cc1` [Compound 143, 2-(4-chloro-3-fluorophenoxy)-N-[3-(2-{2-[4-(dimethylamino)phenyl]ethoxy}-acetamido)bicyclo[1.1.1]pentan-1-yl]acetamide]: over 2000 nM.
For the compound `COc1cc(OCC(=O)NC23CCC(NC(=O)COc4ccc(Cl)c(F)c4)(CC2)C[C@@H]3O)ccc1Cl` [Compound 528, 2-(4-chloro-3-fluorophenoxy)-N-{(3S)-4-[2-(4-chloro-3-methoxyphenoxy)acetamido]-3-hydroxybicyclo[2.2.2]octan-1-yl}acetamide], the EC50 is under 10 nM.
Next, `O=C(COc1ccc(Cl)c(F)c1)NC12CCC(NC(=O)CNc3ccc(Cl)cc3)(CC1)[C@@H](O)C2` [Compound 657, 2-(4-chloroanilino)-N-{(2S)-4-[2-(4-chloro-3-fluorophenoxy)acetamido]-2-hydroxybicyclo[2.2.2]octan-1-yl}acetamide]: 50 to 250 nM; `O=C(COc1ccc(Cl)cc1)NC12CCC(NC(=O)COc3ccc(F)c(C(F)(F)F)c3)(CC1)[C@@H](O)C2` [Compound 830, 2-(4-chlorophenoxy)-N-[(3S)-4-{2-[4-fluoro-3-(trifluoromethyl)phenoxy]acetamido}-3-hydroxybicyclo[2.2.2]octan-1-yl]acetamide]: under 10 nM.
Next, `O=C(COc1ccc2c(c1)OC(F)(F)O2)NC12CCC(NC(=O)COc3ccc(Cl)c(F)c3)(CC1)[C@@H](O)C2` [Compound 726, 2-(4-chloro-3-fluorophenoxy)-N-[(2S)-4-{2-[(2,2-difluoro-2H-1,3-benzodioxol-5-yl)oxy]acetamido}-2-hydroxybicyclo[2.2.2]octan-1-yl]acetamide]: under 10 nM; `COc1cccc(OCC(=O)NC23CCC(NC(=O)COc4ccc(Cl)c(F)c4)(CC2)[C@@H](O)C3)n1` [Compound 792, 2-(4-chloro-3-fluorophenoxy)-N-[(2S)-2-hydroxy-4-{2-[(6-methoxypyridin-2-yl)oxy]acetamido}bicyclo[2.2.2]octan-1-yl]acetamide]: under 10 nM.
In the case of `O=C(COc1cccc(C(F)(F)F)c1)NC12CCC(NC(=O)COc3ccc(Cl)c(F)c3)(CC1)[C@@H](O)C2` [Compound 466, 2-(4-chloro-3-fluorophenoxy)-N-[(2S)-2-hydroxy-4-{2-[3-(trifluoromethyl)phenoxy]acetamido}bicyclo[2.2.2]octan-1-yl]acetamide], the EC50 was under 10 nM.
In the case of `O=C(COc1ccc(Cl)c(F)c1)NC12CCC(NC(=O)Cc3ccc(OC(F)(F)F)cc3)(CC1)C(O)C2` (stereo not shown) [Compound 326, 2-(4-chloro-3-fluorophenoxy)-N-(3-hydroxy-4-{2-[4-(trifluoromethoxy)phenyl]acetamido}bicyclo[2.2.2]octan-1-yl)acetamide], the EC50 is 50 to 250 nM.

Values taken from patent US20240166652A1, “MODULATORS OF THE INTEGRATED STRESS PATHWAY” (Calico Life Sciences LLC, priority 2017, published 2024).
